“And” between values parts separate entries of the source, which are not always exact repeats. Equal entries are not always repeated. Toxic doses and inconclusive results are not listed. No stated cut-off is given here; in the data, active means T/C of 150% or more; inactive means T/C below 125%.
Tested on: L1210 leukemia ip in BDF1 mice, survival T/C
Assay: NCI In Vivo Anticancer Drug Screen. Data for tumor model L1210 Leukemia (intraperitoneal) in B6D2F1 (BDF1) mice
Conditions: endpoint: mean survival time, higher = longer survival
Summary of the method: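 In this screen, tumor-bearing mice given compound are compared to those given vehicle, and their survival values are reported as a treated-to-control quotient.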

[1] = dose: 100.0 mg/kg/injection, schedule: Q01DX001 (ip), vehicle: carboxymethylcellulose (CMC)
[2] = dose: 200.0 mg/kg/injection, schedule: Q01DX001 (ip), vehicle: carboxymethylcellulose (CMC)
[3] = dose: 400.0 mg/kg/injection, schedule: Q01DX001 (ip), vehicle: carboxymethylcellulose (CMC)
[4] = dose: 100.0 mg/kg/injection, schedule: Q01DX009 (ip), vehicle: saline
[5] = dose: 100.0 mg/kg/injection, schedule: Q04DX003 (ip), vehicle: saline
[6] = dose: 200.0 mg/kg/injection, schedule: Q01DX009 (ip), vehicle: saline
[7] = dose: 200.0 mg/kg/injection, schedule: Q04DX003 (ip), vehicle: saline
[8] = dose: 400.0 mg/kg/injection, schedule: Q01DX009 (ip), vehicle: saline
[9] = dose: 400.0 mg/kg/injection, schedule: Q04DX003 (ip), vehicle: saline

Measured: T/C

Cc1cc2c(C)c3cc(C)c(C)c(C)c3cc2c(C)c1C
inactive: dose: 25.0 mg/kg/injection, schedule: Q01DX005 (ip), vehicle: water 114 % of control | dose: 50.0 mg/kg/injection, schedule: Q01DX005 (ip), vehicle: water 94 % of control | dose: 100.0 mg/kg/injection, schedule: Q01DX005 (ip), vehicle: water 94 % of control and 97 % of control | dose: 200.0 mg/kg/injection, schedule: Q01DX005 (ip), vehicle: water 96 % of control | dose: 400.0 mg/kg/injection, schedule: Q01DX005 (ip), vehicle: water 100 % of control

CC(C(=O)c1ccc(O)c(O)c1)N1CCCCC1 (stereo unspecified)
inactive: [1] 102 % of control | [2] 102 % of control | [3] 96 % of control

N#CCCS(=O)(=O)O
inactive: dose: 100.0 mg/kg/injection, schedule: Q01DX001 (ip), vehicle: saline 100 % of control | [4] 98 % of control and 122 % of control | dose: 100.0 mg/kg/injection, schedule: Q04DX002 (ip), vehicle: saline 97 % of control | [5] 95 % of control | dose: 200.0 mg/kg/injection, schedule: Q01DX001 (ip), vehicle: saline 97 % of control | [6] 98 % of control and 108 % of control | dose: 200.0 mg/kg/injection, schedule: Q04DX002 (ip), vehicle: saline 106 % of control and 90 % of control | [7] 103 % of control | dose: 400.0 mg/kg/injection, schedule: Q01DX001 (ip), vehicle: saline 105 % of control | [8] 102 % of control and 108 % of control | dose: 400.0 mg/kg/injection, schedule: Q04DX002 (ip), vehicle: saline 87 % of control and 92 % of control | [9] 97 % of control

CCN(CC)C(=O)NC1CCCN1C (stereo unspecified)
inactive: [4] 96 % of control | [5] 97 % of control | [6] 101 % of control | [7] 107 % of control | [8] 109 % of control | [9] 103 % of control

CCCCC(=O)N1CC(C)OC(C)C1 (stereo unspecified)
inactive: [1] 97 % of control | dose: 100.0 mg/kg/injection, schedule: Q01DX009 (ip), vehicle: carboxymethylcellulose (CMC) 96 % of control | dose: 100.0 mg/kg/injection, schedule: Q04DX002 (ip), vehicle: carboxymethylcellulose (CMC) 102 % of control | dose: 100.0 mg/kg/injection, schedule: Q04DX003 (ip), vehicle: carboxymethylcellulose (CMC) 102 % of control | [2] 102 % of control | dose: 200.0 mg/kg/injection, schedule: Q01DX009 (ip), vehicle: carboxymethylcellulose (CMC) 94 % of control and 104 % of control | dose: 200.0 mg/kg/injection, schedule: Q04DX002 (ip), vehicle: carboxymethylcellulose (CMC) 98 % of control | dose: 200.0 mg/kg/injection, schedule: Q04DX003 (ip), vehicle: carboxymethylcellulose (CMC) 102 % of control | [3] 106 % of control | dose: 400.0 mg/kg/injection, schedule: Q01DX009 (ip), vehicle: carboxymethylcellulose (CMC) 94 % of control and 98 % of control | dose: 400.0 mg/kg/injection, schedule: Q04DX002 (ip), vehicle: carboxymethylcellulose (CMC) 105 % of control | dose: 400.0 mg/kg/injection, schedule: Q04DX003 (ip), vehicle: carboxymethylcellulose (CMC) 96 % of control

CCC(C)NC(C)=O (stereo unspecified)
inactive: [5] 115 % of control | [7] 97 % of control | [9] 110 % of control

CCOC(=O)Cc1cc(=O)[nH][nH]c1=O
inactive: dose: 150.0 mg/kg/injection, schedule: Q04DX002 (ip), vehicle: Klucel (hydroxypropylcellulose) (HPC) 95 % of control | dose: 300.0 mg/kg/injection, schedule: Q04DX002 (ip), vehicle: Klucel (hydroxypropylcellulose) (HPC) 95 % of control

CN(C)C(=O)C1C2C=CC(CC2)C1C(=O)N(C)C (stereo unspecified)
inactive: [5] 96 % of control | [7] 96 % of control | [9] 96 % of control
